The target in this assay is IRAK4 (Homo sapiens (Human), UniProt Q9NWZ3). In words: IRAK4 kinase activity, IMAP fluorescence polarization assay. The assay is classed as biochemical. To be noted: 100 μM ATP. In short, it runs like this: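 Fluorescence polarization (IMAP nanoparticle binding of phosphopeptide) reports activity after a 30 min, 25 °C reaction. Conditions: 100 μM ATP, 0.5 nM GST-IRAK4, 100 nM fluorescent peptide, 10 mM Tris pH 7.2, 1 mM MgCl2, 1 mM DTT, 0.01% Tween 20.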
On the technique in general: In fluorescence polarisation assays a small probe gives low polarisation when free and higher when bound to something large.

Molecules are shown by their SMILES. Where two headings read alike, the source gives them in different places.

Chain of IRAK4 (Q9NWZ3 whole entry): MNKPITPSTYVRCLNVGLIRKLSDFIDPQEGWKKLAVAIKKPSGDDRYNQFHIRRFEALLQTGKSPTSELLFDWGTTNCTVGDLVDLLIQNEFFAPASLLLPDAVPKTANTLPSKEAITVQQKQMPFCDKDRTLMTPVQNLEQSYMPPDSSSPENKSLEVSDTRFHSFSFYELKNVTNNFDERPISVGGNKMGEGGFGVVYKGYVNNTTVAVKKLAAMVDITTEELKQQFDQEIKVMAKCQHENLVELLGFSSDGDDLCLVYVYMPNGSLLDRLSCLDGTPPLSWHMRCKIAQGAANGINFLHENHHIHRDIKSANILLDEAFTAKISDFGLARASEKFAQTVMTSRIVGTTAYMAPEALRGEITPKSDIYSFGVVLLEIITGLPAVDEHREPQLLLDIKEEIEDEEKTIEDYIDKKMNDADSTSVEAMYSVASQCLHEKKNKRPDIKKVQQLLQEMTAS

In the case of `O=c1[nH]c(C2CCN(c3ncccn3)CC2)nc(N[C@@H]2CCCNC2)c1-c1nc2ccccc2s1` [Example 244, (R)-5-(benzo[d]thiazol-2-yl)-6-(piperidin-3-ylamino)-2-(1-(pyrimidin-2-yl)piperidin-4-yl)pyrimidin-4(3H)-one], the IC50 – broadly, the midpoint of a concentration-inhibition curve – (read-out: IC50) was 0.26 µM.

For `O=c1[nH]c(C2CCN(c3cccnc3)CC2)nc(N[C@@H]2CCCNC2)c1-c1nc2ccccc2s1` [Example 245, (R)-5-(benzo[d]thiazol-2-yl)-6-(piperidin-3-ylamino)-2-(1-(pyridin-3-yl)piperidin-4-yl)pyrimidin-4(3H)-one], the IC50 (read-out: IC50) is 0.089 µM. For the molecule `O=c1[nH]c(N2CCOCC2)nc(NCC(O)CO)c1-c1nc2ccccc2s1` (stereo not shown) [Example 246, 5-(1,3-benzothiazol-2-yl)-6-[(2,3-dihydroxypropyl)amino]-2-(morpholin-4-yl)-3,4-dihydropyrimidin-4-one], the IC50 (0.5 nM GST tagged IRAK4, read-out: IRAK4 IC50) was determined as 8.1 µM.

In the case of `N[C@H]1C[C@H]1Nc1nc(N2CCOCC2)[nH]c(=O)c1-c1nc2ccccc2s1` [Example 247, 6-[[(1R,2S)-2-amino-cyclopropyl]amino]-5-(1,3-benzothiazol-2-yl)-2-(morpholin-4-yl)-3,4-dihydropyrimidin-4-one], the IC50 (read-out: IC50) stood at 3 µM. With `CC1(Nc2nc(N3CCOCC3)[nH]c(=O)c2-c2nc3ccccc3s2)CCCNC1` (stereo not shown) [Example 248, 5-(1,3-benzothiazol-2-yl)-6-[(3-methylpiperidin-3-yl)amino]-2-(morpholin-4-yl)-3,4-dihydro-pyrimidin-4-one], the IC50 (read-out: IC50) is 0.15 µM. Still for that read-out and setting: the result for `NC(=O)CNc1nc(N2CCOCC2)[nH]c(=O)c1-c1nc2ccccc2s1` [Example 249, 2-[[5-(1,3-benzothiazol-2-yl)-2-(morpholin-4-yl)-6-oxo-1,6-dihydropyrimidin-4-yl]amino]acetamide] reads 3.9 µM; that for `N=C(N)CNc1nc(N2CCOCC2)[nH]c(=O)c1-c1nc2ccccc2s1` [Example 250, 2-[[5-(1,3-benzothiazol-2-yl)-2-(morpholin-4-yl)-6-oxo-1,6-dihydropyrimidin-4-yl]amino]ethanimidamide], 0.3 µM. In the case of `O=c1[nH]c(N2CCOCC2)nc(NCCNCCO)c1-c1nc2ccccc2s1` [Example 251, 5-(benzo[d]thiazol-2-yl)-6-(2-(2-hydroxyethyl-amino)ethylamino)-2-morpholino-pyrimidin-4(3H)-one], the IC50 (read-out: IC50) is 0.64 µM. `CN1CCCC(Nc2nc(N3CCOCC3)[nH]c(=O)c2-c2nc3ccccc3s2)C1` (stereo not shown) [Example 252, 5-(1,3-benzothiazol-2-yl)-6-[(1-methylpiperidin-3-yl)amino]-2-(morpholin-4-yl)-3,4-dihydro-pyrimidin-4-one]: the IC50 (read-out: IC50) amounted to 1.2 µM. On to `O=c1[nH]c(N2CCOCC2)nc(NC2CNC2)c1-c1nc2ccccc2s1` [Example 253, 6-[(azetidin-3-yl)amino]-5-(1,3-benzothiazol-2-yl)-2-(morpholin-4-yl)-3,4-dihydro-pyrimidin-4-one], for which the IC50 (read-out: IC50) stood at 0.3 µM. Still for that read-out and setting: next, `O=c1[nH]c(N2CCOCC2)nc(NCC2CCCCN2)c1-c1nc2ccccc2s1` (stereo not shown) [Example 254, 5-(1,3-benzothiazol-2-yl)-2-(morpholin-4-yl)-6-[(piperidin-2-ylmethyl)amino]-3,4-dihydro-pyrimidin-4-one]: 1.6 µM. Consider `CCN1CCCC1CNc1nc(N2CCOCC2)[nH]c(=O)c1-c1nc2ccccc2s1` (stereo not shown) [Example 255, 5-(1,3-benzothiazol-2-yl)-6-[[(1-ethylpyrrolidin-2-yl)methyl]amino]-2-(morpholin-4-yl)-3,4-dihydropyrimidin 4-one], for which the IC50 (read-out: IC50) was 2 µM. Consider `O=c1[nH]c(N2CCOCC2)nc(NCCN2CCNCC2)c1-c1nc2ccccc2s1` [Example 256, 5-(1,3-benzothiazol-2-yl)-2-(morpholin-4-yl)-6-[[2-(piperazin-1-yl)ethyl]amino]-3,4-dihydropyrimidin-4-one], for which, under “read-out: IC50”, the half-inhibitory concentration (IC50) is 0.055 µM. In the case of `O=c1[nH]c(N2CCOCC2)nc(NCCN2CCCCC2)c1-c1nc2ccccc2s1` [Example 257, 5-(1,3-benzothiazol-2-yl)-2-(morpholin-4-yl)-6-[[2-(piperidin-1-yl)ethyl]amino]-3,4-dihydropyrimidin-4-one], the concentration for half-maximal inhibition (IC50) (read-out: IC50) was 0.002 µM. Regarding `O=c1[nH]c(N2CCOCC2)nc(NCCN2CCC(O)CC2)c1-c1nc2ccccc2s1` [Example 258, 5-(1,3-benzothiazol-2-yl)-6-[[2-(4-hydroxypiperidin-1-yl)ethyl]amino]-2-(morpholino-4-yl)-3,4-dihydropyrimidin-4-one], where the note is “read-out: IC50”, the IC50 is 0.78 µM. Still for that read-out and setting: next, `O=c1[nH]c(N2CCOCC2)nc(NCCN2CCCC2)c1-c1nc2ccccc2s1` [Example 259, 5-(1,3-benzothiazol-2-yl)-2-(morpholin-4-yl)-6-[[2-(pyrrolidin-1-yl)ethyl]amino]-3,4-dihydropyrimidin-4-one]: 2.2 µM; `CN(C)CCNc1nc(N2CCOCC2)[nH]c(=O)c1-c1nc2ccccc2s1` [Example 260, 5-(1,3-benzothiazol-2-yl)-6-[[2-(dimethylamino)ethyl]amino]-2-(morpholin-4-yl)-3,4-dihydropyrimidin-4-one]: 1.6 µM. Regarding `CC(=O)NCCNc1nc(N2CCOCC2)[nH]c(=O)c1-c1nc2ccccc2s1` [Example 261, N-(2-[[5-(1,3-benzothiazol-2-yl)-2-(morpholin-4-yl)-6-oxo-1,6-dihydropyrimidin-4-yl]amino]ethyl)acetamide], for the setting “read-out: IC50”, the IC50 stood at 8.2 µM. For the molecule `CCC(CO)Nc1nc(N2CCOCC2)[nH]c(=O)c1-c1nc2ccccc2s1` (stereo not shown) [Example 262, 5-(benzo[d]thiazol-2-yl)-6-(1-hydroxy-butan-2-ylamino)-2-morpholino-pyrimidin-4(3H)-one], the IC50 (read-out: IC50) was found to be 0.33 µM. Consider `NC1CCCCC1Nc1nc(N2CCOCC2)[nH]c(=O)c1-c1nc2ccccc2s1` (stereo not shown) [Example 263, 6-(2-aminocyclohexylamino)-5-(benzo[d]thiazol-2-yl)-2-morpholino-pyrimidin-4(3H)-one], for which the IC50 (read-out: IC50) turned out to be 0.23 µM.

Consider `O=c1[nH]c(N2CCOCC2)nc(NCCc2ncc[nH]2)c1-c1nc2ccccc2s1` [Example 264, 6-(2-(1H-imidazol-2-yl)ethylamino)-5-(benzo[d]thiazol-2-yl)-2-morpholino-pyrimidin-4(3H)-one], for which the IC50 (read-out: IC50) came to 0.18 µM.

Regarding `CC(O)CNc1nc(N2CCOCC2)[nH]c(=O)c1-c1nc2ccccc2s1` (stereo not shown) [Example 265, 5-(benzo[d]thiazol-2-yl)-6-(2-hydroxypropylamino)-2-morpholino-pyrimidin-4(3H)-one], the IC50 (read-out: IC50) was determined as 0.78 µM. The same measure, in the same setting: next, `CC(C)C[C@H](CO)Nc1nc(N2CCOCC2)[nH]c(=O)c1-c1nc2ccccc2s1` [Example 266, (R)-5-(benzo[d]thiazol-2-yl)-6-(1-hydroxy-4-methylpentan-2-ylamino)-2-morpholinopyrimidin-4(3H)-one]: 2.5 µM.

Take `O=c1[nH]c(N2CCOCC2)nc(N[C@H]2c3ccccc3C[C@H]2O)c1-c1nc2ccccc2s1` [Example 267, 5-(benzo[d]thiazol-2-yl)-6-((1S,2R)-2-hydroxy-2,3-dihydro-1H-inden-1-ylamino)-2-morpholinopyrimidin-4(3H)-one]: the IC50 (read-out: IC50) turned out to be 8.3 µM. The same measure, in the same setting: next, `O=c1[nH]c(N2CCOCC2)nc(NC2CCC(O)CC2)c1-c1nc2ccccc2s1` (stereo not shown) [Example 268, 5-(benzo[d]thiazol-2-yl)-6-(4-hydroxycyclo-hexylamino)-2-morpholinopyrimidin-4(3H)-one]: 0.62 µM; `O=c1[nH]c(N2CCOCC2)nc(NC2CCCCC2O)c1-c1nc2ccccc2s1` (stereo not shown) [Example 269, 5-(benzo[d]thiazol-2-yl)-6-(2-hydroxycyclohexyl-amino)-2-morpholinopyrimidin-4(3H)-one]: 5.6 µM; `O=c1[nH]c(N2CCOCC2)nc(NC(CO)CO)c1-c1nc2ccccc2s1` [Example 270, 5-(benzo[d]thiazol-2-yl)-6-(1,3-dihydroxy-propan-2-ylamino)-2-morpholinopyrimidin-4(3H)-one]: 0.11 µM.

Regarding `O=c1[nH]c(N2CCOCC2)nc(NCC2CCNCC2)c1-c1nc2ccccc2s1` [Example 271, 5-(1,3-benzothiazol-2-yl)-2-(morpholin-4-yl)-6-[(piperidin-4-ylmethyl)amino]-3,4-dihydropyrimidin-4-one; trifluoroacetic acid], for the setting “read-out: IC50”, the IC50 is 0.33 µM.

With `CN(C)CCNc1nc(N2CCOCC2)[nH]c(=O)c1-c1ccc2ccccc2n1` [Example 272, 6-[[2-(dimethylamino)ethyl]amino]-2-(morpholin-4-yl)-5-(quinolin-2-yl)-3,4-dihydropyrimidin-4-one], the IC50 (read-out: IC50) stood at 1.6 µM. Same read-out and setting: next, `O=c1[nH]c(N2CCOCC2)nc(NCCNCCO)c1-c1ccc2ccccc2n1` [Example 273, 6-([2-[(2-hydroxyethyl)amino]ethyl]amino)-2-(morpholin-4-yl)-5-(quinolin-2-yl)-3,4-dihydropyrimidin-4-one]: 0.67 µM; `CN1CCCC(Nc2nc(N3CCOCC3)[nH]c(=O)c2-c2ccc3ccccc3n2)C1` (stereo not shown) [Example 274, 6-[(1-methylpiperidin-3-yl)amino]-2-(morpholin-4-yl)-5-(quinolin-2-yl)-3,4-dihydropyrimidin-4-one]: 0.72 µM. As for `O=c1[nH]c(N2CCOCC2)nc(NC2CNC2)c1-c1ccc2ccccc2n1` [Example 275, 6-[(azetidin-3-yl)amino]-2-(morpholin-4-yl)-5-(quinolin-2-yl)-3,4-dihydropyrimidin-4-one], the IC50 (read-out: IC50) turned out to be 0.15 µM.

As to `O=c1[nH]c(N2CCOCC2)nc(NCC2CCCCN2)c1-c1ccc2ccccc2n1` (stereo not shown) [Example 276, 2-morpholino-6-(piperidin-2-ylmethylamino)-5-(quinolin-2-yl)pyrimidin-4(3H)-one], for the setting “read-out: IC50”, the IC50 came to 0.34 µM. Turning to `CCN1CCCC1CNc1nc(N2CCOCC2)[nH]c(=O)c1-c1ccc2ccccc2n1` (stereo not shown) [Example 277, 6-((1-ethylpyrrolidin-2-yl)methylamino)-2-morpholino-5-(quinolin-2-yl)pyrimidin-4(3H)-one], the half-maximal inhibitory concentration (IC50) (read-out: IC50) was determined as 1.6 µM.
